Key:
Assay type in all cases: cell-based
Lactobacillus sp. [1] = assay: Storage of a sugar-rich hydrolysate inoculated with Lactobacillus sp., glucose by HPLC
Protocol: (§1) To test the theory, synthetic media was made containing about 90 g/l glucose, 0.5% sodium phosphate/phosphoric acid buffer (pH 5.5), 0.5 g/l diammonium phosphate, 2 g/l yeast extract and 2 g/l peptone. This solution (45 ml) was added to 50 ml serum bottles, along with a magnetic stirrer bar, and autoclaved, where after sodium sulfite at concentrations of 5, 10, 20 and 40 mM was added, while some bottles had no sulfite added, which served as control (0 mM). […] This culture was incubated at 37° C. for 36 hours and used to inoculate all the serum bottles (10% v/v). The serum bottles were then sealed with an airtight septum and a metal ring clamp and two needles were inserted through the septum to allow for sampling. The serum bottles were placed on a magnetic stirrer plate at room temperature (since storage tanks are typically kept at room temperature), with stirring at 100 rpm. Samples were taken periodically and analyzed for glucose and lactic acid using HPLC. Experiments were performed in triplicate. The experiments were continued for 11 days.
Storage of sugar-rich hydrolysate with addition of 5-40 mM was performed in accordance with the description of example 2. In this example, the samples were prepared and handled as in example 2. In other words, the “Experiment A” samples in this example are identical to those of example 2, and these were used as a reference for the “Experiment B” and “Experiment C” samples, as well as for validating the results of example 2.
The “Experiment B” samples were inoculated with a Lactobacillus sp. at time 0 hours, and again after 336 hours. This was done to test the infection resistance of samples that were exposed to more than one culture of Lactobacillus sp; i.e. samples that were re-infected after two weeks.
The samples in “Experiment C” were stored at ambient room temperature for 2 weeks, after which Lactobacillus was added to the flasks, after 336 hours. Samples were incubated for another 7 days and a total of 21 days as for the other two experiments.

Lactobacillus sp. [2] = assay: Bacterial contamination in a sugar-rich hydrolysate comprising 10% non-detoxified spruce hydrolysate, glucose by HPLC
Protocol: as §1
Experiments in this example were performed according to the description in example 2 with the difference that the sugar-rich hydrolysate contained 10% (v/v) non-detoxified spruce hydrolysate. This was done to simulate sugar-rich hydrolysate with some inhibitory impurities present that may arise from insufficient separation and/or washing.
In the “Experiment A” samples, serum bottles were inoculated with Lactobacillus sp. at time 0 hours and incubated at room temperature for 21 days. Samples were taken periodically and analyzed for glucose and lactic acid (not shown here) using HPLC.
In the “Experiment B” samples, serum bottles were inoculated twice—firstly on the first day and again two weeks later, to simulate a re-infection and test the longevity of the inhibitory effect of sodium sulfite.
In Experiment “C”, the third group of serum bottles were inoculated after two weeks of storage at room temperature and inoculated with Lactobacillus (after 14 days).

lactic acid bacteria = assay: Bacterial contamination in a sugar-rich hydrolysate (synthetic media), glucose and lactic acid by HPLC; details: 5, 10, 20 and 40 mM, room temperature, 11 days, FIG. 3
Description: The aim of this experiment was to test the potential of sodium sulfite to control bacterial contamination in the storage tanks which contain sugar-rich hydrolysate streams before they are used in fermentations. The hydrolysate is representative of a hydrolysate according to the present disclosure.
as §1

Lactobacillus = assay: Bacterial contamination in a non-separated (non-detoxified) spruce hydrolysate, lactic acid by HPLC; details: FIG. 2
Protocol: Non-detoxified spruce hydrolysate (with added 2 g/l yeast extract; 0.5% sodium phosphate; 0.5 g/l diammonium phosphate; 2 g/l peptone and diluted with water to 30 g/l glucose) was filter sterilized and used to represent feed media. An inoculum was prepared using MRS media and the same contaminated sample as used in previous experiments, and was incubated at 37° C. overnight (16 hours). Sodium sulfite was added at concentrations of 0 mM, 5 mM, 10 mM, 20 mM and 40 mM, respectively, to 25 ml serum bottles with 22.5 ml of the feed media. After inoculation, the bottles were placed on a multiple magnetic stirring plate at room temperature, with samples taken periodically and analyzed using HPLC.
The hydrolysate used may represent a feed stream where no separation of the pretreatment liquid and solid component has taken place. In other words, hydrolysis and fermentation inhibitors are still present in the feed stream.

Q: What does the source list for `O=S([O-])[O-].[Na+].[Na+]` [sodium sulfite]?
A: growth of Lactobacillus sp. (Lactobacillus sp. [1]; 5, 10, 20 and 40 mM, three weeks of incubation): inhibited the growth; Glucose (Lactobacillus sp. [1]; Experiment A, 5 mM, 0 h): 83.3 g/L; Glucose (Lactobacillus sp. [1]; Experiment A, 5 mM, 172 h): 84.0 g/L; Glucose (Lactobacillus sp. [1]; Experiment A, 5 mM, 340 h): 83.5 g/L; Glucose (Lactobacillus sp. [1]; Experiment A, 5 mM, 510 h): 83.2 g/L; Glucose (Lactobacillus sp. [1]; Experiment A, 10 mM, 0 h): 84.1 g/L; Glucose (Lactobacillus sp. [1]; Experiment A, 10 mM, 172 h): 85.3 g/L; Glucose (Lactobacillus sp. [1]; Experiment A, 10 mM, 340 h): 82.8 g/L; Glucose (Lactobacillus sp. [1]; Experiment A, 10 mM, 510 h): 82.2 g/L; Glucose (Lactobacillus sp. [1]; Experiment A, 20 mM, 0 h): 83.7 g/L; Glucose (Lactobacillus sp. [1]; Experiment A, 20 mM, 172 h): 85.6 g/L; Glucose (Lactobacillus sp. [1]; Experiment A, 20 mM, 340 h): 86.8 g/L; Glucose (Lactobacillus sp. [1]; Experiment A, 20 mM, 510 h): 84.7 g/L; Glucose (Lactobacillus sp. [1]; Experiment A, 40 mM, 0 h): 81.5 g/L; Glucose (Lactobacillus sp. [1]; Experiment A, 40 mM, 172 h): 83.2 g/L; Glucose (Lactobacillus sp. [1]; Experiment A, 40 mM, 340 h): 83.2 g/L; Glucose (Lactobacillus sp. [1]; Experiment A, 40 mM, 510 h): 83.6 g/L; glucose consumption (Lactobacillus sp. [1]; Experiment A, flasks with added sodium sulfite, three weeks): no glucose consumption; bacterial growth (Lactobacillus sp. [1]; Experiment B (inoculated at 0 h and 336 h), 5 mM or more, 21 days): No signs of bacterial growth; Glucose (Lactobacillus sp. [1]; Experiment B, 5 mM, 0 h): 82.3 g/L; Glucose (Lactobacillus sp. [1]; Experiment B, 5 mM, 172 h): 82.9 g/L; Glucose (Lactobacillus sp. [1]; Experiment B, 5 mM, 340 h): 82.6 g/L; Glucose (Lactobacillus sp. [1]; Experiment B, 5 mM, 510 h): 78.3 g/L; Glucose (Lactobacillus sp. [1]; Experiment B, 10 mM, 0 h): 82.9 g/L; Glucose (Lactobacillus sp. [1]; Experiment B, 10 mM, 172 h): 84.3 g/L; Glucose (Lactobacillus sp. [1]; Experiment B, 10 mM, 340 h): 81.5 g/L; Glucose (Lactobacillus sp. [1]; Experiment B, 10 mM, 510 h): 80.8 g/L; Glucose (Lactobacillus sp. [1]; Experiment B, 20 mM, 0 h): 82.8 g/L; Glucose (Lactobacillus sp. [1]; Experiment B, 20 mM, 172 h): 74.7 g/L; Glucose (Lactobacillus sp. [1]; Experiment B, 20 mM, 340 h): 86.0 g/L; Glucose (Lactobacillus sp. [1]; Experiment B, 20 mM, 510 h): 83.3 g/L; Glucose (Lactobacillus sp. [1]; Experiment B, 40 mM, 0 h): 80.2 g/L; Glucose (Lactobacillus sp. [1]; Experiment B, 40 mM, 172 h): 82.1 g/L; Glucose (Lactobacillus sp. [1]; Experiment B, 40 mM, 340 h): 82.0 g/L; Glucose (Lactobacillus sp. [1]; Experiment B, 40 mM, 510 h): 82.5 g/L; bacterial growth (Lactobacillus sp. [1]; Experiment C (14 days storage at room temperature, then inoculated), concentrations above 5 mM): no growth was observed; Glucose (Lactobacillus sp. [1]; Experiment C, 5 mM, 0 h): 81.2 g/L; Glucose (Lactobacillus sp. [1]; Experiment C, 5 mM, 172 h): 81.6 g/L; Glucose (Lactobacillus sp. [1]; Experiment C, 5 mM, 340 h): 85.5 g/L; Glucose (Lactobacillus sp. [1]; Experiment C, 5 mM, 510 h): 82.0 g/L; Glucose (Lactobacillus sp. [1]; Experiment C, 10 mM, 0 h): 82.2 g/L; Glucose (Lactobacillus sp. [1]; Experiment C, 10 mM, 172 h): 81.8 g/L; Glucose (Lactobacillus sp. [1]; Experiment C, 10 mM, 340 h): 84.0 g/L; Glucose (Lactobacillus sp. [1]; Experiment C, 10 mM, 510 h): 82.4 g/L; Glucose (Lactobacillus sp. [1]; Experiment C, 20 mM, 0 h): 80.8 g/L; Glucose (Lactobacillus sp. [1]; Experiment C, 20 mM, 172 h): 80.3 g/L; Glucose (Lactobacillus sp. [1]; Experiment C, 20 mM, 340 h): 84.5 g/L; Glucose (Lactobacillus sp. [1]; Experiment C, 20 mM, 510 h): 83.3 g/L; Glucose (Lactobacillus sp. [1]; Experiment C, 40 mM, 0 h): 82.0 g/L; Glucose (Lactobacillus sp. [1]; Experiment C, 40 mM, 172 h): 81.6 g/L; Glucose (Lactobacillus sp. [1]; Experiment C, 40 mM, 340 h): 86.2 g/L; Glucose (Lactobacillus sp. [1]; Experiment C, 40 mM, 510 h): 82.0 g/L; effect on Lactobacillus sp. growth (Lactobacillus sp. [2]; 40 mM, hydrolysate with 10% (v/v) non-detoxified spruce hydrolysate, Experiments A-C): antimicrobial effect; growth relative to sample with no sulfite (detoxification effect) (Lactobacillus sp. [2]; 5-20 mM, hydrolysate with 10% (v/v) non-detoxified spruce hydrolysate): grew faster; Glucose (Lactobacillus sp. [2]; Experiment A, 5 mM, 0 h): 83.8 g/L; Glucose (Lactobacillus sp. [2]; Experiment A, 5 mM, 168 h): 71.9 g/L; Glucose (Lactobacillus sp. [2]; Experiment A, 5 mM, 336 h): 66.3 g/L; Glucose (Lactobacillus sp. [2]; Experiment A, 5 mM, 508 h): 65.9 g/L; Glucose (Lactobacillus sp. [2]; Experiment A, 10 mM, 0 h): 84.8 g/L; Glucose (Lactobacillus sp. [2]; Experiment A, 10 mM, 168 h): 72.9 g/L; Glucose (Lactobacillus sp. [2]; Experiment A, 10 mM, 336 h): 64.6 g/L; Glucose (Lactobacillus sp. [2]; Experiment A, 10 mM, 508 h): 63.8 g/L; Glucose (Lactobacillus sp. [2]; Experiment A, 20 mM, 0 h): 83.4 g/L; Glucose (Lactobacillus sp. [2]; Experiment A, 20 mM, 168 h): 75.2 g/L; Glucose (Lactobacillus sp. [2]; Experiment A, 20 mM, 336 h): 70.1 g/L; Glucose (Lactobacillus sp. [2]; Experiment A, 20 mM, 508 h): 67.2 g/L; Glucose (Lactobacillus sp. [2]; Experiment A, 40 mM, 0 h): 82.0 g/L; Glucose (Lactobacillus sp. [2]; Experiment A, 40 mM, 168 h): 80.1 g/L; Glucose (Lactobacillus sp. [2]; Experiment A, 40 mM, 336 h): 77.0 g/L; Glucose (Lactobacillus sp. [2]; Experiment A, 40 mM, 508 h): 82.5 g/L; Glucose (Lactobacillus sp. [2]; Experiment B, 5 mM, 0 h): 83.8 g/L; Glucose (Lactobacillus sp. [2]; Experiment B, 5 mM, 168 h): 72.6 g/L; Glucose (Lactobacillus sp. [2]; Experiment B, 5 mM, 336 h): 66.8 g/L; Glucose (Lactobacillus sp. [2]; Experiment B, 5 mM, 508 h): 69.0 g/L; Glucose (Lactobacillus sp. [2]; Experiment B, 10 mM, 0 h): 81.7 g/L; Glucose (Lactobacillus sp. [2]; Experiment B, 10 mM, 168 h): 71.5 g/L; Glucose (Lactobacillus sp. [2]; Experiment B, 10 mM, 336 h): 67.9 g/L; Glucose (Lactobacillus sp. [2]; Experiment B, 10 mM, 508 h): 73.4 g/L; Glucose (Lactobacillus sp. [2]; Experiment B, 20 mM, 0 h): 83.1 g/L; Glucose (Lactobacillus sp. [2]; Experiment B, 20 mM, 168 h): 69.0 g/L; Glucose (Lactobacillus sp. [2]; Experiment B, 20 mM, 336 h): 72.4 g/L; Glucose (Lactobacillus sp. [2]; Experiment B, 20 mM, 508 h): 72.1 g/L; Glucose (Lactobacillus sp. [2]; Experiment B, 40 mM, 0 h): 85.2 g/L; Glucose (Lactobacillus sp. [2]; Experiment B, 40 mM, 168 h): 86.6 g/L; Glucose (Lactobacillus sp. [2]; Experiment B, 40 mM, 336 h): 86.2 g/L; Glucose (Lactobacillus sp. [2]; Experiment B, 40 mM, 508 h): 86.3 g/L; Glucose (Lactobacillus sp. [2]; Experiment C, 5 mM, 0 h): 85.4 g/L; Glucose (Lactobacillus sp. [2]; Experiment C, 5 mM, 168 h): 84.8 g/L; Glucose (Lactobacillus sp. [2]; Experiment C, 5 mM, 336 h): 83.4 g/L; Glucose (Lactobacillus sp. [2]; Experiment C, 5 mM, 508 h): 77.1 g/L; Glucose (Lactobacillus sp. [2]; Experiment C, 10 mM, 0 h): 84.8 g/L; Glucose (Lactobacillus sp. [2]; Experiment C, 10 mM, 168 h): 81.7 g/L; Glucose (Lactobacillus sp. [2]; Experiment C, 10 mM, 336 h): 81.9 g/L; Glucose (Lactobacillus sp. [2]; Experiment C, 10 mM, 508 h): 75.5 g/L; Glucose (Lactobacillus sp. [2]; Experiment C, 20 mM, 0 h): 85.9 g/L; Glucose (Lactobacillus sp. [2]; Experiment C, 20 mM, 168 h): 82.3 g/L; Glucose (Lactobacillus sp. [2]; Experiment C, 20 mM, 336 h): 83.5 g/L; Glucose (Lactobacillus sp. [2]; Experiment C, 20 mM, 508 h): 79.5 g/L; Glucose (Lactobacillus sp. [2]; Experiment C, 40 mM, 0 h): 80.9 g/L; Glucose (Lactobacillus sp. [2]; Experiment C, 40 mM, 168 h): 81.0 g/L; Glucose (Lactobacillus sp. [2]; Experiment C, 40 mM, 336 h): 85.6 g/L; Glucose (Lactobacillus sp. [2]; Experiment C, 40 mM, 508 h): 82.6 g/L; concentration of lactic acid (lactic acid bacteria): 0 g/L; growth of lactic acid bacteria (lactic acid bacteria): inhibited the growth; antimicrobial effect on the hydrolysate (Lactobacillus; 5 to 40 mM sodium sulfite, room temperature): no antimicrobial effect; bacterial growth (Lactobacillus; sodium sulfite added (5 to 40 mM)): increased bacterial growth

Reference: patent US20220364132A1, “METHOD FOR FORMING A STORAGE STABLE H[…] A LIGNO[…]” (Sekab E- Technology AB, priority 2019, published 2022)
